Converted amounts (≈) assume the structure as drawn. The source made the active and inactive calls. The calls are words filed in the database; no cut-off is given here.
Columns and labels:
Staphylococcus aureus [1] = experiment: Antibacterial activity against methicillin-resistant Staphylococcus aureus 936 after 18 hrs by CLSI based broth microdilution method; format: functional; details: Staphylococcus aureus, 936, 18 h
Escherichia coli [2] = experiment: Induction of outer membrane permeabilization in Escherichia coli ATCC 25922 measured up to 12 mins by NPN-dye based assay; format: organism-based
Escherichia coli [3] = experiment: Ratio of antibacterial activity against Escherichia coli ATCC 25922 in presence of MgCl2 to antibacterial activity against Escherichia coli ATCC 25922; format: functional
Staphylococcus aureus [4] = experiment: Ratio of antibacterial activity against Staphylococcus aureus ATCC 25923 in presence of MgCl2 to antibacterial activity against Staphylococcus aureus ATCC 25923; format: functional
Pseudomonas aeruginosa [5] = experiment: Potentiation of polymyxin B-induced antibacterial activity against Pseudomonas aeruginosa ATCC 27853 assessed as FICI after 18 hrs by checker board assay; format: functional
Staphylococcus aureus [6] = experiment: Ratio of antibacterial activity against Staphylococcus aureus ATCC 25923 in presence of KCl to antibacterial activity against Staphylococcus aureus ATCC 25923; format: functional
Escherichia coli [7] = experiment: Induction of membrane disruption in Escherichia coli ATCC 25922 assessed as rough membrane surface at 4 times of MIC after 2 hrs by SEM analysis; format: functional, organism-based
Klebsiella pneumoniae [8] = experiment: Potentiation of polymyxin B-induced antibacterial activity against Klebsiella pneumoniae ATCC 700603 assessed as FICI after 18 hrs by checker board assay; format: functional
Escherichia coli [9] = experiment: Induction of inner membrane permeabilization in Escherichia coli ATCC 43837 assessed as increase in ONPG release at 1 to 2 times of MIC by ONPG dye based assay; format: organism-based
Escherichia coli [10] = experiment: Induction of inner membrane permeabilization in Escherichia coli ATCC 43837 assessed as increase in ONPG release at 4 times of MIC by ONPG dye based assay; format: organism-based
Escherichia coli [11] = experiment: Antibiofilm activity against Escherichia coli ATCC 25922 after 24 hrs by crystal violet staining based assay; format: functional, organism-based
DNA = experiment: Binding affinity to Escherichia coli ATCC 25922 genomic DNA after 30 mins by agarose gel electrophoresis; format: nucleic-acid assay
Escherichia coli [12] = experiment: Induction of ROS generation in Escherichia coli ATCC 25922; format: functional, organism-based
Escherichia coli [13] = experiment: Ratio of antibacterial activity against Escherichia coli ATCC 25922 in presence of KCl to antibacterial activity against Escherichia coli ATCC 25922; format: functional
Klebsiella pneumoniae [14] = experiment: Antibacterial activity against Klebsiella pneumoniae ATCC 700603 after 18 hrs by CLSI based broth microdilution method; format: functional; details: Klebsiella pneumoniae, 700603, 18 h
Escherichia coli [15] = experiment: Disruption of membrane integrity in Escherichia coli ATCC 25922 assessed as membrane damage by measuring PI fluorescence at 4 times of MIC incubated for 1 hr by PI dye based flow cytometric analysis (reference value: 1.35%); format: functional
Escherichia coli [16] = experiment: Disruption of membrane integrity in Escherichia coli ATCC 25922 assessed as membrane damage by measuring PI fluorescence incubated for 1 hr by PI dye based flow cytometric analysis; format: functional, organism-based
[17] = Selectivity index, ratio of MHC10 for human RBC to geometric mean of peptide MIC for gram positive bacteria; format: toxicity; details: human red blood cells, read-out: Selectivity Index
Escherichia coli [18] = experiment: Antibacterial activity against Escherichia coli ATCC 25922 after 18 hrs by CLSI based broth microdilution method; format: functional; details: ATCC 25922, 18 h
Escherichia coli [19] = experiment: Ratio of MIC for Escherichia coli ATCC 25922 preincubated for 6 hrs in presence of 10% mouse serum and measured after 18 hrs to MIC for antibacterial activity against Escherichia coli ATCC 25922 after 18 hrs; format: functional
[20] = Selectivity index, ratio of MHC10 for human RBC to geometric mean of peptide MIC for gram negative bacteria; format: toxicity; details: human red blood cells, read-out: Selectivity Index
Escherichia coli [21] = experiment: Potentiation of rifampicin-induced antibacterial activity against Escherichia coli ATCC 25922 assessed as FICI after 18 hrs by checker board assay; format: functional
Escherichia coli [22] = experiment: Induction of membrane disruption in Escherichia coli ATCC 25922 assessed as corrugated membrane surface at 4 times of MIC after 2 hrs by SEM analysis; format: functional, organism-based
Pseudomonas aeruginosa [23] = experiment: Antibacterial activity against Pseudomonas aeruginosa ATCC 27853 after 18 hrs by CLSI based broth microdilution method; format: functional; details: ATCC 27853, 18 h
Staphylococcus aureus [24] = experiment: Antibiofilm activity against Staphylococcus aureus ATCC 25923 after 24 hrs by crystal violet staining based assay; format: functional, organism-based
Bacillus subtilis = experiment: Antibacterial activity against Bacillus subtilis ATCC 23857 after 18 hrs by CLSI based broth microdilution method; format: functional; details: ATCC 23857, 18 h
Escherichia coli [25] = experiment: Antimicrobial activity against Escherichia coli ATCC 25922 at 1 mM preincubated for 6 hrs in presence of 2000 ug/ml trypsin and measured after 18 hrs by microplate reader analysis; format: functional, organism-based
Erythrocyte = experiment: Hemolytic activity in human RBC measured after 1 hr by microplate reader analysis; format: ADME, cell-based
Pseudomonas aeruginosa [26] = experiment: Potentiation of rifampicin-induced antibacterial activity against Pseudomonas aeruginosa ATCC 27853 assessed as FICI after 18 hrs by checker board assay; format: functional
Staphylococcus aureus [27] = experiment: Antibacterial activity against Staphylococcus aureus ATCC 25923 after 18 hrs by CLSI based broth microdilution method; format: functional; details: ATCC 25923, 18 h
Pseudomonas aeruginosa [28] = experiment: Antibiofilm activity against Pseudomonas aeruginosa ATCC 27853 after 24 hrs by crystal violet staining based assay; format: functional, organism-based
Escherichia coli [29] = experiment: Ratio of antibacterial activity against Escherichia coli ATCC 25922 in presence of NaCl to antibacterial activity against Escherichia coli ATCC 25922; format: functional
Staphylococcus aureus [30] = experiment: Ratio of antibacterial activity against Staphylococcus aureus ATCC 25923 in presence of NaCl to antibacterial activity against Staphylococcus aureus ATCC 25923; format: functional
Escherichia coli [31] = experiment: Antibacterial activity against Escherichia coli ATCC 43837 after 18 hrs by CLSI based broth microdilution method; format: functional; details: ATCC 43837, 18 h
Escherichia coli [32] = experiment: Potentiation of polymyxin B-induced antibacterial activity against Escherichia coli ATCC 25922 assessed as FICI after 18 hrs by checker board assay; format: functional
Staphylococcus aureus [33] = experiment: Ratio of antibacterial activity against Staphylococcus aureus ATCC 25923 in presence of FeCl3 to antibacterial activity against Staphylococcus aureus ATCC 25923; format: functional
Escherichia coli [34] = experiment: Antibiofilm activity against Escherichia coli ATCC 25922 at 2 times MIC after 24 hrs by crystal violet staining based assay; format: functional, organism-based
Escherichia coli [35] = experiment: Induction of membrane disruption in Escherichia coli ATCC 25922 assessed as degeneration in membrane at 4 times of MIC after 2 hrs by SEM analysis; format: functional, organism-based
Escherichia coli [36] = experiment: Disruption of membrane integrity in Escherichia coli ATCC 25922 assessed as membrane damage by measuring PI fluorescence at 2 times of MIC incubated for 1 hr by PI dye based flow cytometric analysis (reference value: 1.35%); format: functional
Pseudomonas aeruginosa [37] = experiment: Antibiofilm activity against Pseudomonas aeruginosa ATCC 27853 at 0.25 to 2 times of MIC after 24 hrs by crystal violet staining based assay; format: functional, organism-based
Escherichia coli [38] = experiment: Ratio of antibacterial activity against Escherichia coli ATCC 25922 in presence of FeCl3 to antibacterial activity against Escherichia coli ATCC 25922; format: functional

For `CCCCCCCC(=O)NC(Cc1cn(CCCC[C@H](NC(C)=O)C(=O)NCC(=O)N[C@@H](CC(C)C)C(=O)N[C@@H](CC(C)C)C(=O)N[C@H](CCCCN)C(=O)N[C@@H](CCCNC(=N)N)C(=O)N[C@H](C(=O)N[C@H](CCCCN)C(=O)N[C@H](C(=O)N[C@@H](CC(C)C)C(=O)N[C@@H](CC(C)C)C(N)=O)[C@@H](C)O)[C@@H](C)CC)nn1)C(=O)NCC(=O)N[C@@H](CC(C)C)C(=O)N[C@@H](CC(C)C)C(=O)N[C@H](CCCCN)C(=O)N[C@@H](CCCNC(=N)N)C(=O)N[C@H](C(=O)N[C@H](CCCCN)C(=O)N[C@H](C(=O)N[C@@H](CC(C)C)C(=O)N[C@@H](CC(C)C)C(N)=O)[C@@H](C)O)[C@@H](C)CC` (some centres not stated), the MIC (Staphylococcus aureus [1]) was 16 µM (≈ 43.6 µg/mL), the Activity (Escherichia coli [2]) was “Dose-dependent effect” and the Ratio (Escherichia coli [3]) was 2 - 4. The Ratio (Staphylococcus aureus [4]) was 2 - 4, the “fractional inhibitory concentration index (FICI)” value (Pseudomonas aeruginosa [5]) was 0.5625 and the Ratio (Staphylococcus aureus [6]) was 2 - 4. The Activity (Escherichia coli [7]) was “Active”, the “fractional inhibitory concentration index (FICI)” value (Klebsiella pneumoniae [8]) was 0.3125 and the Activity (Escherichia coli [9]) was “Active”. The Activity (Escherichia coli [10]) was “Active”, the inhibition (Escherichia coli [11]) was “Dose-dependent effect” and the Activity (DNA) was “Dose-dependent effect”. For the same compound, the Activity (Escherichia coli [12]) was “inactive”, the Ratio (Escherichia coli [13]) was 2 - 4 and the MIC (Klebsiella pneumoniae [14]) was 16 µM (≈ 43.6 µg/mL). The Activity (Escherichia coli [15]) was 32.1%, the Activity (Escherichia coli [16]) was “Dose-dependent effect” and the selectivity ratio [17] was 11.3. The MIC (Escherichia coli [18]) was 4 µM (≈ 10.9 µg/mL), the Ratio (Escherichia coli [19]) was 4 and the selectivity ratio [20] was 14.2. For the same compound, the “fractional inhibitory concentration index (FICI)” value (Escherichia coli [21]) was 0.5625, the Activity (Escherichia coli [22]) was “Active” and the MIC (Pseudomonas aeruginosa [23]) was 8 µM (≈ 21.8 µg/mL). For the same compound, the inhibition (Staphylococcus aureus [24]) was “Dose-dependent effect”, the MIC (Bacillus subtilis) was 2 µM (≈ 5.45 µg/mL) and the Activity (Escherichia coli [25]) was “Active”. For the same compound, the MHC10 (Erythrocyte) was 128 µM, the “fractional inhibitory concentration index (FICI)” value (Pseudomonas aeruginosa [26]) was 0.5625 and the MIC (Staphylococcus aureus [27]) was 16 µM (≈ 43.6 µg/mL). For the same compound, the inhibition (Pseudomonas aeruginosa [28]) was “Dose-dependent effect”, the Ratio (Escherichia coli [29]) was 2 - 4 and the Ratio (Staphylococcus aureus [30]) was 2 - 4. The MIC (Escherichia coli [31]) was 8 µM (≈ 21.8 µg/mL), the “fractional inhibitory concentration index (FICI)” value (Escherichia coli [32]) was 0.3125 and the Ratio (Staphylococcus aureus [33]) was 2 - 4. The inhibition (Escherichia coli [34]) was “Active”, the Activity (Escherichia coli [35]) was “Active” and the Activity (Escherichia coli [36]) was 13.4%. The inhibition (Pseudomonas aeruginosa [37]) was “Active” and the Ratio (Escherichia coli [38]) was 2 - 4.
In the case of `CCCCCC(=O)NC(Cc1cn(CCCC[C@H](NC(C)=O)C(=O)NCC(=O)N[C@@H](CC(C)C)C(=O)N[C@@H](CC(C)C)C(=O)N[C@H](CCCCN)C(=O)N[C@@H](CCCNC(=N)N)C(=O)N[C@H](C(=O)N[C@H](CCCCN)C(=O)N[C@H](C(=O)N[C@@H](CC(C)C)C(=O)N[C@@H](CC(C)C)C(N)=O)[C@@H](C)O)[C@@H](C)CC)nn1)C(=O)NCC(=O)N[C@@H](CC(C)C)C(=O)N[C@@H](CC(C)C)C(=O)N[C@H](CCCCN)C(=O)N[C@@H](CCCNC(=N)N)C(=O)N[C@H](C(=O)N[C@H](CCCCN)C(=O)N[C@H](C(=O)N[C@@H](CC(C)C)C(=O)N[C@@H](CC(C)C)C(N)=O)[C@@H](C)O)[C@@H](C)CC` (some centres not stated), the MIC (Staphylococcus aureus [1]) is reported as 64 µM (≈ 173 µg/mL), the Activity (Escherichia coli [2]) is reported as “Dose-dependent effect” and the Ratio (Escherichia coli [3]) is reported as 2 - 4. For the same compound, the Ratio (Staphylococcus aureus [4]) was 2 - 4, the “fractional inhibitory concentration index (FICI)” value (Pseudomonas aeruginosa [5]) was 0.3125 and the Ratio (Staphylococcus aureus [6]) was 2 - 4. The Activity (Escherichia coli [7]) was “Active”, the “fractional inhibitory concentration index (FICI)” value (Klebsiella pneumoniae [8]) was 0.1875 and the Activity (Escherichia coli [9]) was “Active”. For the same compound, the Activity (Escherichia coli [10]) was “Active”, the inhibition (Escherichia coli [11]) was “Dose-dependent effect” and the Activity (DNA) was “Dose-dependent effect”. For the same compound, the Activity (Escherichia coli [12]) was “inactive”, the Ratio (Escherichia coli [13]) was 2 - 4 and the MIC (Klebsiella pneumoniae [14]) was 16 µM (≈ 43.1 µg/mL). For the same compound, the Activity (Escherichia coli [15]) was 38.5%, the Activity (Escherichia coli [16]) was “Dose-dependent effect” and the selectivity ratio [17] was 11.6. The MIC (Escherichia coli [18]) was 8 µM (≈ 21.6 µg/mL), the Ratio (Escherichia coli [19]) was 2 and the selectivity ratio [20] was 51.2. For the same compound, the “fractional inhibitory concentration index (FICI)” value (Escherichia coli [21]) was 0.5625, the Activity (Escherichia coli [22]) was “Active” and the MIC (Pseudomonas aeruginosa [23]) was 8 µM (≈ 21.6 µg/mL). The inhibition (Staphylococcus aureus [24]) was “Dose-dependent effect”, the MIC (Bacillus subtilis) was 4 µM (≈ 10.8 µg/mL) and the Activity (Escherichia coli [25]) was “Active”. The MHC10 (Erythrocyte) was > 256 µM, the “fractional inhibitory concentration index (FICI)” value (Pseudomonas aeruginosa [26]) was 0.5 and the MIC (Staphylococcus aureus [27]) was 64 µM (≈ 173 µg/mL). For the same compound, the inhibition (Pseudomonas aeruginosa [28]) was “Dose-dependent effect”, the Ratio (Escherichia coli [29]) was 2 - 4 and the Ratio (Staphylococcus aureus [30]) was 2 - 4. The MIC (Escherichia coli [31]) was 8 µM (≈ 21.6 µg/mL), the “fractional inhibitory concentration index (FICI)” value (Escherichia coli [32]) was 0.375 and the Ratio (Staphylococcus aureus [33]) was 2 - 4. The inhibition (Escherichia coli [34]) was “Active”, the Activity (Escherichia coli [35]) was “Active” and the Activity (Escherichia coli [36]) was 22.4%. The inhibition (Pseudomonas aeruginosa [37]) was “Active” and the Ratio (Escherichia coli [38]) was 2 - 4.
